Measurements from US9302999B2, “Substituted triazoles as herbicides” (E. I. DU PONT DE NEMOURS AND COMPANY, priority 2012, dated 2016).

Legend:
Format in all cases: in vivo
[1] = test system: barnyardgrass (Echinochloa crus-galli); test: Test A pre-/postemergence: barnyardgrass
Procedure, shortened: (§1)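 Pre: directed soil spray after planting in loam + sand. Post: same formulation (non-phytotoxic solvent + surfactant) on 1–2-leaf plants, 2–10 cm. Greenhouse ~10 d; visual injury 0–100 vs untreated.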

[2] = test system: crabgrass, large (large crabgrass, Digitaria sanguinalis); test: Test A pre-/postemergence: crabgrass, large
Procedure, shortened: as §1

[3] = test system: foxtail, giant (giant foxtail, Setaria faberii); test: Test A pre-/postemergence: foxtail, giant
Procedure, shortened: as §1

[4] = test system: morningglory (Ipomoea spp.); test: Test A pre-/postemergence: morningglory
Procedure, shortened: as §1

[5] = test system: pigweed (Amaranthus retroflexus); test: Test A pre-/postemergence: pigweed
Procedure, shortened: as §1

[6] = test system: velvetleaf (Abutilon theophrasti); test: Test A pre-/postemergence: velvetleaf
Procedure, shortened: as §1

[7] = test system: wheat (Triticum aestivum); test: Test A pre-/postemergence: wheat
Procedure, shortened: as §1

corn (Zea mays) = test: Test A pre-/postemergence: corn
Procedure, shortened: as §1

rice (Oryza sativa) = test: Test C flooded paddy test: rice; details: scale 0 to 100 (0 no effect, 100 complete control)
Procedure, shortened: (§2)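 Plants were grown to the 2-leaf stage, pots flooded to 3 cm above soil, and test compounds applied directly to the paddy water, with that depth held throughout. After 13 to 15 days in a greenhouse, injury was visually rated against controls on a 0 (no effect) to 100 (complete control) scale.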

[8] = test system: sedge, umbrella (small-flower umbrella sedge, Cyperus difformis); test: Test C flooded paddy test: sedge, umbrella; details: scale 0 to 100 (0 no effect, 100 complete control)
Procedure, shortened: as §2

[9] = test system: ducksalad (Heteranthera limosa); test: Test C flooded paddy test: ducksalad; details: scale 0 to 100 (0 no effect, 100 complete control)
Procedure, shortened: as §2

[10] = test system: barnyardgrass (Echinochloa crus-galli); test: Test C flooded paddy test: barnyardgrass; details: scale 0 to 100 (0 no effect, 100 complete control)
Procedure, shortened: as §2

[11] = Postemergence, 125 g ai/ha, 0 to 100 scale, 0 is no effect, 100 is complete control
[12] = Postemergence, 500 g ai/ha, visual rating on 0 to 100 scale (0 no effect, 100 complete control), approximately ten days
[13] = Preemergence, 125 g ai/ha, 0 to 100 scale where 0 is no effect and 100 is complete control
[14] = Preemergence, 500 g ai/ha, 0 to 100 scale, 0 is no effect, 100 is complete control
[15] = Flood (flooded paddy test), 125 g ai/ha, visual rating after 13 to 15 days
[16] = Flood (flooded paddy test), 250 g ai/ha, visual rating after 13 to 15 days
[17] = Postemergence, 1000 g ai/ha, visual rating on 0 to 100 scale (0 no effect, 100 complete control), approximately ten days
[18] = Preemergence, 1000 g ai/ha, 0 to 100 scale, 0 is no effect, 100 is complete control
[19] = Preemergence, 500 g ai/ha, 0 to 100 scale (0 no effect, 100 complete control)

Cc1nn(-c2ccc(C(F)(F)F)cc2)nc1Oc1cccc(C(F)(F)F)c1 [Compound 111]
90: Crabgrass, Large plant response rating [2, 11] | Crabgrass, Large plant response rating [2, 12] | Foxtail, Giant plant response rating [3, 12] | Pigweed plant response rating [5, 11] | Pigweed plant response rating [5, 12] | Plant response rating, Pigweed [5, 14]
20: Barnyardgrass plant response rating [1, 11] | Plant response rating, Barnyardgrass [1, 13] | Velvetleaf plant response rating [6, 11] | Corn plant response rating (corn (Zea mays); [11]) | Plant response rating, Corn (corn (Zea mays); [14]) | Plant response rating, Barnyardgrass [10, 15]
30: Barnyardgrass plant response rating [1, 12] | Plant response rating, Morningglory [4, 14] | Corn plant response rating (corn (Zea mays); [12]) | Plant response rating, Rice (rice (Oryza sativa); [16]) | Plant response rating, Ducksalad ([9]; Flood, 62 g ai/ha)
70: Plant response rating, Foxtail, Giant [3, 13] | Morningglory plant response rating [4, 11] | Plant response rating, Pigweed [5, 13] | Velvetleaf plant response rating [6, 12] | Plant response rating, Ducksalad [9, 15]
40: Wheat plant response rating [7, 12]
10: Wheat plant response rating [7, 11]
80: Plant response rating, Barnyardgrass [1, 14] | Plant response rating, Crabgrass, Large [2, 13] | Foxtail, Giant plant response rating [3, 11] | Plant response rating, Sedge, Umbrella [8, 15] | Plant response rating, Ducksalad [9, 16]
100: Plant response rating, Crabgrass, Large [2, 14] | Plant response rating, Foxtail, Giant [3, 14] | Morningglory plant response rating [4, 12]
50: Plant response rating, Velvetleaf [6, 14]
85: Plant response rating, Sedge, Umbrella [8, 16]
0: Plant response rating, Morningglory [4, 13] | Plant response rating, Velvetleaf [6, 13] | Plant response rating, Wheat [7, 13] | Plant response rating, Wheat [7, 14] | Plant response rating, Corn (corn (Zea mays); [13]) | Plant response rating, Rice (rice (Oryza sativa); Flood, 31 g ai/ha) | Plant response rating, Rice (rice (Oryza sativa); Flood, 62 g ai/ha) | Plant response rating, Ducksalad ([9]; Flood, 31 g ai/ha) | Plant response rating, Barnyardgrass ([10]; Flood, 31 g ai/ha) | Plant response rating, Barnyardgrass ([10]; Flood, 62 g ai/ha)
25: Plant response rating, Rice (rice (Oryza sativa); [15])
65: Plant response rating, Sedge, Umbrella ([8]; Flood, 62 g ai/ha)
45: Plant response rating, Sedge, Umbrella ([8]; Flood, 31 g ai/ha)
35: Plant response rating, Barnyardgrass [10, 16]

Cc1nn(-c2ccc(C(F)(F)F)cc2)nc1Cn1ccc(C(F)(F)F)n1 [Compound 117]
65: Plant response rating, Sedge, Umbrella ([8]; Flood, 31 g ai/ha) | Plant response rating, Barnyardgrass [10, 15]
75: Plant response rating, Sedge, Umbrella [8, 15]
90: Crabgrass, Large plant response rating [2, 17] | Foxtail, Giant plant response rating [3, 17] | Morningglory plant response rating [4, 17]
25: Plant response rating, Rice (rice (Oryza sativa); [15])
10: Wheat plant response rating [7, 18]
60: Plant response rating, Barnyardgrass ([10]; Flood, 62 g ai/ha)
50: Corn plant response rating (corn (Zea mays); [18]) | Plant response rating, Ducksalad ([9]; Flood, 62 g ai/ha) | Plant response rating, Barnyardgrass ([10]; Flood, 31 g ai/ha)
30: Velvetleaf plant response rating [6, 18] | Plant response rating, Ducksalad ([9]; Flood, 31 g ai/ha)
15: Plant response rating, Rice (rice (Oryza sativa); Flood, 31 g ai/ha) | Plant response rating, Rice (rice (Oryza sativa); Flood, 62 g ai/ha)
20: Wheat plant response rating [7, 17]
85: Plant response rating, Sedge, Umbrella [8, 16] | Plant response rating, Ducksalad [9, 16]
70: Plant response rating, Sedge, Umbrella ([8]; Flood, 62 g ai/ha)
40: Morningglory plant response rating [4, 18] | Corn plant response rating (corn (Zea mays); [17]) | Plant response rating, Rice (rice (Oryza sativa); [16])
100: Barnyardgrass plant response rating [1, 18] | Crabgrass, Large plant response rating [2, 18] | Foxtail, Giant plant response rating [3, 18] | Pigweed plant response rating [5, 17] | Pigweed plant response rating [5, 18] | Velvetleaf plant response rating [6, 17]
80: Barnyardgrass plant response rating [1, 17] | Plant response rating, Ducksalad [9, 15] | Plant response rating, Barnyardgrass [10, 16]

Cc1nn(-c2ccc(C(F)(F)F)cc2)nc1Oc1cccc(OC(F)(F)F)c1 [Compound 119]
25: Plant response rating, Rice (rice (Oryza sativa); [15]) | Plant response rating, Rice (rice (Oryza sativa); [16]) | Plant response rating, Barnyardgrass [10, 15]
10: Barnyardgrass plant response rating [1, 11] | Plant response rating, Morningglory [4, 19] | Plant response rating, Velvetleaf [6, 19] | Wheat plant response rating [7, 12] | Corn plant response rating (corn (Zea mays); [11])
75: Plant response rating, Sedge, Umbrella ([8]; Flood, 62 g ai/ha)
0: Plant response rating, Barnyardgrass [1, 13] | Plant response rating, Morningglory [4, 13] | Plant response rating, Velvetleaf [6, 13] | Wheat plant response rating [7, 11] | Plant response rating, Wheat [7, 13] | Plant response rating, Wheat [7, 19] | Plant response rating, Corn (corn (Zea mays); [13]) | Plant response rating, Corn (corn (Zea mays); [19])
70: Crabgrass, Large plant response rating [2, 12] | Plant response rating, Crabgrass, Large [2, 13] | Morningglory plant response rating [4, 12] | Pigweed plant response rating [5, 11]
15: Plant response rating, Rice (rice (Oryza sativa); Flood, 62 g ai/ha)
30: Plant response rating, Barnyardgrass [1, 19] | Corn plant response rating (corn (Zea mays); [12]) | Plant response rating, Barnyardgrass [10, 16]
100: Plant response rating, Crabgrass, Large [2, 19] | Plant response rating, Foxtail, Giant [3, 19] | Pigweed plant response rating [5, 12] | Plant response rating, Pigweed [5, 19]
40: Crabgrass, Large plant response rating [2, 11] | Velvetleaf plant response rating [6, 12]
85: Plant response rating, Sedge, Umbrella [8, 15] | Plant response rating, Sedge, Umbrella [8, 16]
80: Plant response rating, Ducksalad [9, 15] | Plant response rating, Ducksalad [9, 16]
60: Foxtail, Giant plant response rating [3, 12] | Plant response rating, Pigweed [5, 13]
50: Plant response rating, Foxtail, Giant [3, 13] | Plant response rating, Ducksalad ([9]; Flood, 62 g ai/ha)
20: Barnyardgrass plant response rating [1, 12] | Foxtail, Giant plant response rating [3, 11] | Morningglory plant response rating [4, 11] | Velvetleaf plant response rating [6, 11] | Plant response rating, Barnyardgrass ([10]; Flood, 62 g ai/ha)

FC(F)(F)c1ccc(-n2nc(Br)c(Cc3cccc(C(F)(F)F)c3)n2)cc1 [Compound 123]
0: Morningglory plant response rating [4, 18] | Wheat plant response rating [7, 18] | Corn plant response rating (corn (Zea mays); [18]) | Plant response rating, Rice (rice (Oryza sativa); [15]) | Plant response rating, Rice (rice (Oryza sativa); Flood, 31 g ai/ha) | Plant response rating, Rice (rice (Oryza sativa); Flood, 62 g ai/ha) | Plant response rating, Sedge, Umbrella ([8]; Flood, 31 g ai/ha) | Plant response rating, Sedge, Umbrella ([8]; Flood, 62 g ai/ha) | Plant response rating, Ducksalad ([9]; Flood, 31 g ai/ha) | Plant response rating, Barnyardgrass [10, 15] | Plant response rating, Barnyardgrass [10, 16] | Plant response rating, Barnyardgrass ([10]; Flood, 31 g ai/ha) | Plant response rating, Barnyardgrass ([10]; Flood, 62 g ai/ha)
40: Corn plant response rating (corn (Zea mays); [17]) | Plant response rating, Ducksalad ([9]; Flood, 62 g ai/ha)
50: Plant response rating, Sedge, Umbrella [8, 15]
20: Wheat plant response rating [7, 17]
60: Crabgrass, Large plant response rating [2, 18] | Foxtail, Giant plant response rating [3, 17]
75: Plant response rating, Sedge, Umbrella [8, 16] | Plant response rating, Ducksalad [9, 15] | Plant response rating, Ducksalad [9, 16]
10: Barnyardgrass plant response rating [1, 17] | Barnyardgrass plant response rating [1, 18] | Velvetleaf plant response rating [6, 18] | Plant response rating, Rice (rice (Oryza sativa); [16])
100: Morningglory plant response rating [4, 17] | Pigweed plant response rating [5, 17] | Velvetleaf plant response rating [6, 17]
80: Crabgrass, Large plant response rating [2, 17] | Foxtail, Giant plant response rating [3, 18] | Pigweed plant response rating [5, 18]

Cc1nn(-c2ccc(F)cc2)nc1Oc1cc(C(F)(F)F)nn1C [Compound 126]
0: Plant response rating, Wheat [7, 13] | Plant response rating, Wheat [7, 19] | Plant response rating, Corn (corn (Zea mays); [13]) | Plant response rating, Rice (rice (Oryza sativa); Flood, 31 g ai/ha) | Plant response rating, Rice (rice (Oryza sativa); Flood, 62 g ai/ha) | Plant response rating, Ducksalad ([9]; Flood, 31 g ai/ha) | Plant response rating, Ducksalad ([9]; Flood, 62 g ai/ha) | Plant response rating, Barnyardgrass ([10]; Flood, 31 g ai/ha) | Plant response rating, Barnyardgrass ([10]; Flood, 62 g ai/ha)
70: Barnyardgrass plant response rating [1, 12] | Plant response rating, Barnyardgrass [1, 13] | Plant response rating, Foxtail, Giant [3, 13] | Morningglory plant response rating [4, 11]
90: Crabgrass, Large plant response rating [2, 11] | Crabgrass, Large plant response rating [2, 12] | Foxtail, Giant plant response rating [3, 12] | Plant response rating, Foxtail, Giant [3, 19]
20: Barnyardgrass plant response rating [1, 11] | Wheat plant response rating [7, 12] | Corn plant response rating (corn (Zea mays); [11]) | Plant response rating, Corn (corn (Zea mays); [19]) | Plant response rating, Rice (rice (Oryza sativa); [16]) | Plant response rating, Ducksalad [9, 15]
40: Velvetleaf plant response rating [6, 11] | Plant response rating, Velvetleaf [6, 19] | Plant response rating, Sedge, Umbrella ([8]; Flood, 62 g ai/ha) | Plant response rating, Barnyardgrass [10, 16]
65: Plant response rating, Ducksalad [9, 16]
100: Plant response rating, Crabgrass, Large [2, 13] | Plant response rating, Crabgrass, Large [2, 19] | Pigweed plant response rating [5, 11] | Pigweed plant response rating [5, 12] | Plant response rating, Pigweed [5, 13] | Plant response rating, Pigweed [5, 19]
60: Foxtail, Giant plant response rating [3, 11]
75: Plant response rating, Sedge, Umbrella [8, 15]
10: Plant response rating, Morningglory [4, 13] | Plant response rating, Velvetleaf [6, 13] | Wheat plant response rating [7, 11] | Plant response rating, Rice (rice (Oryza sativa); [15])
80: Plant response rating, Barnyardgrass [1, 19] | Morningglory plant response rating [4, 12] | Velvetleaf plant response rating [6, 12] | Plant response rating, Sedge, Umbrella [8, 16]
30: Plant response rating, Morningglory [4, 19] | Corn plant response rating (corn (Zea mays); [12]) | Plant response rating, Sedge, Umbrella ([8]; Flood, 31 g ai/ha) | Plant response rating, Barnyardgrass [10, 15]
